IC50 data for 19 compounds are collected here from US8614201B2 (Janssen Pharmaceutica NV, priority 2009, dated 2013).

The target of one assay is T1, Human TRPA1 (Homo sapiens, UniProt O75762). Briefly: Assay 1: In vitro cellular testing of TRPA1 modulation (CHO-TREx, Fluo-3 calcium fluorescence, AITC agonist). The class given is cell-based. Also noted: expressed in transfected cells; host or cells: CHO-TREx cells (Invitrogen), vector pcDNA4/TO. Conditions: CHO-TREx cells expressing human TRPA1; Fluo-3 fluorescence (FLIPR/Tetra); agonist 15 μM allyl isothiocyanate (AITC); 30 minute antagonist incubation. The gist of the method: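 Antagonist potency is the 50% reduction of the AITC (15 μM) calcium response, Hill-fitted against no-antagonist and 10 μM ruthenium red controls. Fluo-3-loaded (4 μM) CHO-TREx cells with tetracycline-inducible human TRPA1 got compound in HEPES saline pH 7.4 for 30 min, usually from 10 μM in three-fold dilutions.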
T1 sequence (O75762 whole entry): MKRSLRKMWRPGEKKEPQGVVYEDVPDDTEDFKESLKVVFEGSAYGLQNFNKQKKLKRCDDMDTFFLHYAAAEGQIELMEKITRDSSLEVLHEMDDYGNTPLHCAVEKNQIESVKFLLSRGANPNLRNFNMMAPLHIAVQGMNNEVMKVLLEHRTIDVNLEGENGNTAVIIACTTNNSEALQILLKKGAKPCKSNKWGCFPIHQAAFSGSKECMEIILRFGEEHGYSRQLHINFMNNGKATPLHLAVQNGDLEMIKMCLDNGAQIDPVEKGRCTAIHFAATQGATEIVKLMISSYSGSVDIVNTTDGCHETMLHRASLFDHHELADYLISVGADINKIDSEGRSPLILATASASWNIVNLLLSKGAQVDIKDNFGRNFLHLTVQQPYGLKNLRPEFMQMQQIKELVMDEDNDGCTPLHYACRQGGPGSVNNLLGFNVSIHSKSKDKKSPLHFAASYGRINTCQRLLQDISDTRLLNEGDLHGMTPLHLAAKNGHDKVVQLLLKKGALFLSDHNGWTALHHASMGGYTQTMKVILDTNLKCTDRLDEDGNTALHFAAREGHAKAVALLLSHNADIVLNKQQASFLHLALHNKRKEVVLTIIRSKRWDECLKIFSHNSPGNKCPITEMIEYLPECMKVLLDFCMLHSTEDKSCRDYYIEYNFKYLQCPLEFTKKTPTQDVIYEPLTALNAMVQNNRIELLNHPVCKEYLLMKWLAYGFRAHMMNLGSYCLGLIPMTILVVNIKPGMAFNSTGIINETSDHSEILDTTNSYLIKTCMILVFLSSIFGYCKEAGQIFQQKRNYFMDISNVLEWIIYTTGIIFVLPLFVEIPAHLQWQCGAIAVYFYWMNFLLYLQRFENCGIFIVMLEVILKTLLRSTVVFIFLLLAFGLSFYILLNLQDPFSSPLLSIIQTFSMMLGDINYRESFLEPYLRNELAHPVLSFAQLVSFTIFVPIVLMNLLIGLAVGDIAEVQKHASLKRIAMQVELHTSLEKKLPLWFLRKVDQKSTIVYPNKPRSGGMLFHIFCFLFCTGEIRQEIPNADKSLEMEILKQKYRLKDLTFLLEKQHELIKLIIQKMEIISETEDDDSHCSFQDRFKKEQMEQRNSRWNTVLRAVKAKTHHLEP
For `O=C(NCc1cc(-c2ccc(OC(F)(F)F)cc2)ccn1)[C@@H]1CCCN1S(=O)(=O)c1ccc(Cl)s1` [Example 138, 1-(5-Chloro-thiophene-2-sulfonyl)-pyrrolidine-2S-carboxylic acid [4-(4-trifluoromethoxy-phenyl)-pyridin-2-ylmethyl]-amide], the IC50 came out at 17 nM. On the same count and under the same terms, in the case of `COc1ccc(-c2cccc(CNC(=O)[C@@H]3CCCN3S(=O)(=O)c3ccc(F)cc3)c2)cc1` [Example 80, 1-(4-Fluorobenzenesulfonyl)-pyrrolidine-2S-carboxylic acid (4′-methoxybiphenyl-3-ylmethyl)-amide] it was 410 nM; in that of `C[C@@H]1CCCN1c1nc(CNC(=O)[C@@H]2CCCN2S(=O)(=O)c2ccc(F)cc2)cc(-c2ccc(C(F)(F)F)cc2)n1` [Example 27, 1-(4-Fluoro-benzenesulfonyl)-pyrrolidine-2S-carboxylic acid [2-(2R-methyl-pyrrolidin-1-yl)-6-(4-trifluoromethyl-phenyl)-pyrimidin-4-ylmethyl]-amide], 16 nM. In the case of `O=C(NCc1cc(-c2ccc(C(F)(F)F)cc2)ncn1)[C@@H]1CCCN1S(=O)(=O)c1ccc(Cl)s1` [Example 166, 1-(5-Chlorothiophene-2-sulfonyl)-pyrrolidine-2S-carboxylic acid [6-(4-trifluoromethylphenyl)-pyrimidin-4-ylmethyl]-amide], the IC50 turned out to be 14 nM. Same read-out and setting: the value for `CC(Nc1nc(CNC(=O)[C@@H]2CCCN2S(=O)(=O)c2ccc(F)cc2)cc(-c2ccc(C(F)(F)F)cc2)n1)c1ccccn1` (stereo partly drawn) [Example 16, 1-(4-Fluoro-benzenesulfonyl)-pyrrolidine-2S-carboxylic acid [2-(1-pyridin-2-yl-ethylamino)-6-(4-trifluoromethyl-phenyl)-pyrimidin-4-ylmethyl]-amide] was 34 nM. Still for that read-out and setting: in the case of `N[C@@H]1CCN(c2nc(CNC(=O)[C@@H]3CCCN3S(=O)(=O)c3ccc(Cl)s3)cc(-c3ccc(C(F)(F)F)cc3)n2)C1` [Example 40, 1-(5-Chloro-thiophene-2-sulfonyl)-pyrrolidine-2S-carboxylic acid [2-(3R-amino-pyrrolidin-1-yl)-6-(4-trifluoromethyl-phenyl)-pyrimidin-4-ylmethyl]-amide] it was 1650 nM. Still for that read-out and setting: the value for `O=C(NCc1nccc(-c2ccc(C(F)(F)F)cc2)n1)[C@@H]1CCCN1S(=O)(=O)c1ccc(F)cc1` [Example 185, (2S)-1-(4-Fluoro-benzenesulfonyl)-pyrrolidine-2-carboxylic acid [4-(4-trifluoromethyl-phenyl)-pyrimidin-2-ylmethyl]-amide] was 433 nM; that for `O=C(NCc1cc(NCc2ccncc2)nc(-c2ccc(C(F)(F)F)cc2)c1)[C@@H]1C=CCN1S(=O)(=O)c1ccc(F)cc1` [Example 344, (2S)-1-[(4-Fluorophenyl)sulfonyl]-N-({2-[(pyridin-4-ylmethyl)amino]-6-[4-(trifluoromethyl)phenyl]pyridin-4-yl}methyl)-2,5-dihydro-1H-pyrrole-2-carboxamide] was above 10000 nM; that for `O=C(NCc1cc(-c2ccc(OC(F)(F)F)cc2)ccn1)[C@@H]1C=CCN1S(=O)(=O)c1ccc(F)cc1` [Example 145, 1-(4-Fluoro-benzenesulfonyl)-2,5-dihydro-1H-pyrrole-2S-carboxylic acid [4-(4-trifluoromethoxy-phenyl)-pyridin-2-ylmethyl]-amide] was 28 nM.

Another assay concerns the target T1, Human TRPA1. In words: Alternative TRPA1 Ca2+ fluorometry assay (hTRPA1/TREx-HEK293 cells, Fluo-4, FDSS 6000). Conditions: Fluo-4-AM, agonist 6,11-dihydro-5H-dibenzo[b,e]azepine-10-carboxylic acid methyl ester 25 nM, procedure used for Examples 184, 190 to 192, 194 to 316. Also noted: expressed in transfected cells. The class given is cell-based. How it is done: In alternative embodiments, the assay was performed using the following procedure for Examples 184, 190 to 192, and 194 to 316:
The human TRPA1 gene was cloned into the pT-Rex-Dest30 inducible vector and stably transfected in T-Rex™-293 cells (Invitrogen, Merelbeke, Belgium). This tetracycline inducible hTRPA1 expression system was used in order to prevent CA^2+ overload in the cultured cells due to sustained TRPA1 expression. hTRPA1/TREx-HEK293 cells (referred to as jTRPA1 cells in the following text) were maintained under standard sterile cell culture conditions. The culture medium for the jTRPA1-HEK cells was DMEN (Gibco BRL, Invitrogen, Merelbeke, Belgium) supplemented with 5 g/l gengticin (Gibco), 5 mL/l blasticidin (Invitorgen), 14.6 g/l L-Glutamine (200 mMl; Gibco), 5 g/l penicillin/streptomycin (5.10-6 IU/I, Gibco), 5.5 g/l pyruvic acid (Gibco) and 10% foetal calf serum (Hyclone, Logan Utah, USA).
For Ca^2+ fluorometry experiments, hTRPA1-HEK cells were resuspended in HBSS seeding medium: HBSS (with CaCl2 and MgCl2: Gibco) supplemented with 14.6 g/l L-Glutamine (200 mM; Gibco), 5 g/l penicillin/streptomycin (5.10-6 IU/l. Gibco), 5.5 g/l pyruvic acid (Gibco) and 10% foetal calf serum (heat inactivated for 30 minutes at 56° C.; Hyclone, Logan Utah, USA). The cells were seeded in poly-D-lysine-coated 384-well round bottom polypropylene plates (Costar Corning, Data Packaging, Cambridge Mass., USA) at 12000 cells/well. Fifty ng/ml tetracycline was added to induce the hTRPA1 expression 24 h before the experiment.
The cells were loaded with 5 mg/l Fluo-4-AM (Molecular Probes, Invitorgen, Merelbeke, Belgium) dissolved in HBSS seeding medium supplemented with 0.7 g/l Probenecid (Sigma) and incubated for 1 h at 37° C. and subsequently at 20° C. for 1 to 2 h. The fluorescence was measured in the FDSS 6000 imaging based plate reader (Hamamutsu Photonics K.K., Hamamutsu City, Japan). The excitation wavelength was 488 nm and the emission wavelength 540 nm. After a control period of 12 seconds the inventive compounds were added and the Ca^2+ signal was measured within 14 minutes after application. Finally, a TRPA1 agonist, 6,11-dihydro-5H-dibenzo[b,e]azepine-10-carboxylic acid methyl ester, was added at a final concentration of 25 nM. The emission ratio was calculated by dividing the emission signal (Em540) by the first EM540 signal of the control period to compensate for the background fluorescence. […] For intracellular Ca^2+ measurements, a compound stock solution (10 to 100 mM) was further diluted in DMSO in order to obtain a final 1% DMSO concentration in the extracellular solution.
`O=C(NCc1cc(-c2ccc(Br)cc2)nc(NCCc2ccc(Cl)cc2Cl)n1)[C@@H]1CCCN1S(=O)(=O)c1ccc(F)cc1` [Example 221, 1-(4-Fluoro-benzenesulfonyl)-pyrrolidine-2S-carboxylic acid {6-(4-bromo-phenyl)-2-[2-(2,4-dichloro-phenyl)-ethylamino]-pyrimidin-4-ylmethyl}-amide] had an IC50 of 2040 nM.

`CC(Nc1nc(CNC(=O)[C@@H]2CCCN2S(=O)(=O)c2ccc(F)cc2)cc(-c2ccc(C(F)(F)F)cc2)n1)c1ccccc1` (stereo partly drawn) [Example 313, 1-(4-Fluoro-benzenesulfonyl)-pyrrolidine-2S-carboxylic acid [2-(1-phenyl-ethylamino)-6-(4-trifluoromethyl-phenyl)-pyrimidin-4-ylmethyl]-amide]: the IC50 is around 489 nM.

In the case of `COc1ccc(S(=O)(=O)N2CCC[C@H]2C(=O)NCc2cc(-c3ccc(C(F)(F)F)cc3)nc(N3CCN(c4ccccc4F)CC3)n2)cc1` [Example 255, 1-(4-Methoxy-benzenesulfonyl)-pyrrolidine-2S-carboxylic acid [2-[4-(2-fluoro-phenyl)-piperazin-1-yl]-6-(4-trifluoromethyl-phenyl)-pyrimidin-4-ylmethyl]-amide], the 50% inhibitory concentration (IC50) was above 10000 nM. With `O=C(NCc1cc(-c2ccc(Br)cc2)nc(N2CCN(c3ccc(F)cc3)CC2)n1)[C@@H]1CCCN1S(=O)(=O)c1ccc(F)cc1` [Example 300, 1-(4-Fluoro-benzenesulfonyl)-pyrrolidine-2S-carboxylic acid {6-(4-bromo-phenyl)-2-[4-(4-fluoro-phenyl)-piperazin-1-yl]-pyrimidin-4-ylmethyl}-amide], the concentration for half-maximal inhibition (IC50) turned out to be 2510 nM.

`NC(=O)C1CCCN(c2nc(CNC(=O)[C@@H]3CCCN3S(=O)(=O)c3ccc(F)cc3)cc(-c3ccc(C(F)(F)F)cc3)n2)C1` (stereo partly drawn) [Example 298, 1-[4-({[1-(4-Fluoro-benzenesulfonyl)-pyrrolidine-2S-carbonyl]-amino}-methyl)-6-(4-trifluoromethyl-phenyl)-pyrimidin-2-yl]-piperidine-3-carboxylic acid amide] registered an IC50 of 4680 nM. For the compound `N#Cc1cccc(-c2cc(CNC(=O)[C@@H]3CCCN3S(=O)(=O)c3ccc(F)cc3)nc(N3CCN(c4ccccc4F)CC3)n2)c1` [Example 235, 1-(4-Fluoro-benzenesulfonyl)-pyrrolidine-2S-carboxylic acid {6-(3-cyano-phenyl)-2-[4-(2-fluoro-phenyl)-piperazin-1-yl]-pyrimidin-4-ylmethyl}-amide], the half-maximal inhibitory concentration (IC50) came to 5890 nM.

As for `O=C(NCc1cc(-c2ccc(Cl)cc2Cl)nc(N2CCN(c3ccccc3F)CC2)n1)[C@@H]1CCCN1S(=O)(=O)c1ccc(F)cc1` [Example 250, 1-(4-Fluoro-benzenesulfonyl)-pyrrolidine-2S-carboxylic acid {6-(2,4-dichloro-phenyl)-2-[4-(2-fluoro-phenyl)-piperazin-1-yl]-pyrimidin-4-ylmethyl}-amide], the 50% inhibitory concentration (IC50) came out at 851 nM. On the same count and under the same terms, in the case of `O=C(NCc1cc(-c2ccc(Br)cc2)nc(N2CCOCC2)n1)[C@@H]1CCCN1S(=O)(=O)c1ccc(F)cc1` [Example 217, 1-(4-Fluoro-benzenesulfonyl)-pyrrolidine-2S-carboxylic acid [6-(4-bromo-phenyl)-2-morpholin-4-yl-pyrimidin-4-ylmethyl]-amide] it was 871 nM. On the same count and under the same terms, in the case of `Cc1ccc(C)c(-c2cc(CNC(=O)[C@@H]3CCCN3S(=O)(=O)c3ccc(F)cc3)nc(N3CCN(c4ccccc4F)CC3)n2)c1` [Example 232, 1-(4-Fluoro-benzenesulfonyl)-pyrrolidine-2S-carboxylic acid {6-(2,5-dimethyl-phenyl)-2-[4-(2-fluoro-phenyl)-piperazin-1-yl]-pyrimidin-4-ylmethyl}-amide] it was 1120 nM; in that of `O=C(NCc1cc(-c2ccc(C(F)(F)F)cc2)nc(N2CCN(c3ccccc3F)CC2)n1)[C@@H]1CCCN1S(=O)(=O)c1cccc(Cl)c1` [Example 254, 1-(3-Chloro-benzenesulfonyl)-pyrrolidine-2S-carboxylic acid [2-[4-(2-fluoro-phenyl)-piperazin-1-yl]-6-(4-trifluoromethyl-phenyl)-pyrimidin-4-ylmethyl]-amide], above 10000 nM.

Usually IC50 stands for the concentration needed to halve the response being measured.
